In ChEMBL document CHEMBL5543108, “Structure-based design and synthesis of BML284 derivatives: A novel class of colchicine-site noncovalent tubulin degradation agents” (Eur J Med Chem, 2024) one finds IC50, Activity and inhibition in vivo data, which are given here for nine compounds.

Each structure is given as a SMILES string. pIC50: −log10 of the molar value. Counter-ions that a name gives are not always drawn. Activity calls are given as the source filed them. The calls are words filed in the database; no cut-off is given here.

As a reminder, the pIC50 is −log10 of the IC50, conventionally taken in molar units.

The subject of one assay is MCF7. The experiment in a line: cells. To be noted: Homo sapiens, MCF7, 72 h.
A further assay has as its system MOLM-13. Description: Antiproliferative activity against human MOLM-13 cells assessed as reduction in cell viability measured after 72 hrs. It counts as functional, cell-based. The note with it: MOLM-13, 72 h.
The target in assay [1] is T1, Tubulin (Homo sapiens) (UniProt P68371+Q9H4B7+P0DPH7+P68366+Q13509+Q71U36+P04350+Q3ZCM7+P07437+P68363+Q9BQE3+Q6PEY2+Q13885+Q9BVA1+Q9BUF5). The experiment in a line: Induction of tubulin degradation in human HeLa cells measured after 24 hrs by immunoblot analysis. To be noted: dose <= 50.0 µM. In kind it is cell-based.
For a further assay, the system named is HCT-116. Description: cells. The note with it: Homo sapiens, HCT-116, 72 h.
Assay [2] addresses T1, Tubulin (Homo sapiens). Description: Induction of tubulin degradation in human HeLa cells at 50 uM measured after 24 hrs by immunoblot analysis. In kind it is cell-based. In general terms: A western blot detects proteins with antibodies after separation by electrophoresis.
The next assay relates to K562. The experiment in a line: Antiproliferative activity against human K562 cells assessed as reduction in cell viability measured after 72 hrs. The note with it: K562, 72 h. It counts as functional, cell-based.
A further assay relates to HeLa. The experiment in a line: Antiproliferative activity against human HeLa cells assessed as reduction in cell viability measured after 72 hrs. It counts as functional, cell-based.
Assay [3] deals with A2780/Taxol. The experiment in a line: Antiproliferative activity against human A2780T cells assessed as reduction in cell viability measured after 72 hrs. It counts as functional, cell-based.
Another assay concerns A2780S. Description: Antitumor activity against human A2780S cells xenografted in mouse model assessed as tumor growth inhibition at 30 mg/kg, ip administered every two days for 12 days relative to control. In kind it is functional. The note with it: 288 h, time 12 day, read-out: TGI. A general note: Xenograft models place foreign cells or tissue in a host animal.
Assay [4] relates to A2780/Taxol. Description: Antitumor activity against human A2780T cells xenografted in mouse model assessed as tumor growth inhibition at 30 mg/kg, ip administered every two days for 18 days relative to control. It counts as functional. To be noted: 432 h, time 18 day, read-out: TGI.
The test system of another assay is A549/TR. The experiment in a line: Antiproliferative activity against paclitaxel resistant human A549T cells assessed as reduction in cell viability measured after 72 hrs. In kind it is functional, cell-based.
Another assay relates to NCI/ADR-RES. Description: Antiproliferative activity against human MCF7ADR cells assessed as reduction in cell viability measured after 72 hrs. In kind it is functional, cell-based.

Description for HCT-116: Antiproliferative activity against human HCT-116 cells assessed as reduction in cell viability measured after 72 hrs
Description for MCF7: Antiproliferative activity against human MCF7 cells assessed as reduction in cell viability measured after 72 hrs

Turning to `COc1cccc(-c2cc(N)nc(NCc3ccc4c(c3)OCO4)c2)c1`, the pIC50 with MCF7 is 4.58; in the assay on MOLM-13 it was 4.69; in the assay on HCT-116, 4.43; in the assay on K562, 4.71; in the assay with HeLa it was 4.31. In addition, the result at Tubulin (Homo sapiens) [1] and at Tubulin (Homo sapiens) [2] was inactive.

Take `COc1cccc(-c2cc(NCc3ccc4c(c3)OCO4)ncn2)c1`: the negative-log IC50 (pIC50) with MCF7 was 4.64; in the assay on MOLM-13 it was 4.90; in the assay with HCT-116, 4.80; in the assay on K562, 5.06; in the assay on HeLa it was 4.51. Further, the Activity result on Tubulin (Homo sapiens) [1] is “Dose-Dependent Effect”. In addition, the result at Tubulin (Homo sapiens) [2] was Active.

For the compound `CC(=O)O[C@H]1C(=O)[C@@]2(C)[C@H]([C@H](OC(=O)c3ccccc3)[C@]3(O)C[C@H](OC(=O)[C@H](O)[C@@H](NC(=O)c4ccccc4)c4ccccc4)C(C)=C1C3(C)C)[C@]1(OC(C)=O)CO[C@@H]1C[C@@H]2O` [PACLITAXEL], the pIC50 in the assay with MCF7 is 7.50; in the assay with MOLM-13, 8.40; in the assay on A2780/Taxol [3], 4.25; in the assay with A549/TR, 6.08; with K562 it was 7.82. The inhibition in vivo at 30 mg/kg in the assay with A2780S came out at 74.6%; in the assay on A2780/Taxol [4] it was 23.2%.

On to `CCN(Cc1ccc2c(c1)OCO2)c1cc(-c2cccc(OC)c2)nc(N)n1`, for which the pIC50 in the assay on MCF7 was 7.22; in the assay with MOLM-13, 7.52; in the assay on HCT-116, 7.22; with K562, 7.40; in the assay on HeLa it was 7.70. The Activity entry on Tubulin (Homo sapiens) [1] was “Dose-Dependent Effect”.

Take `COc1cccc(-c2cc(NCc3ccccc3)nc(N)n2)c1`: the pIC50 was 6.07 with MCF7; 6.44 in the assay on MOLM-13; 6.04 in the assay with HCT-116; 6.57 in the assay on K562; 6.36 in the assay with HeLa. Moreover, the Activity result at Tubulin (Homo sapiens) [1] is “Dose-Dependent Effect”.

With `Nc1nc(NCc2ccc3c(c2)OCO3)cc(-c2ccccc2)n1`, the negative logarithm of the IC50 (pIC50) is 5.72 in the assay with MCF7; 6.60 with MOLM-13; 6.04 in the assay with HCT-116; 6.85 in the assay with K562; 6.34 in the assay with HeLa. Also, the Activity entry at Tubulin (Homo sapiens) [1] is “Dose-Dependent Effect”.

For `COc1cccc2c1C(=O)c1c(O)c3c(c(O)c1C2=O)C[C@@](O)(C(=O)CO)C[C@@H]3O[C@H]1C[C@H](N)[C@H](O)[C@H](C)O1` [DOXORUBICIN HYDROCHLORIDE], the pIC50 in the assay with NCI/ADR-RES was 5.06.

Take `COc1cccc(-c2cc(NCc3cccc(F)c3)nc(N)n2)c1`: the pIC50 with MCF7 is 6.44; in the assay on MOLM-13 it was 6.92; in the assay on HCT-116 it was 6.80; in the assay on K562, 6.49; in the assay with HeLa, 6.36.

With `COc1cccc(-c2cc(NCc3cc(F)cc(F)c3)nc(N)n2)c1`, the pIC50 is 6.21 in the assay with MCF7; 6.66 in the assay on MOLM-13; 6.35 with HCT-116; 6.46 in the assay on K562; 6.21 with HeLa.
